Publication PMC3901395, “Multivalent interactions of the SUMO-interaction motifs in RING finger protein 4 determine the specificity for chains of the SUMO” (Biochemical Journal, 2013)
Peptide text beside a SMILES is read from it.

Columns and labels:
[1] = biological target: T1, 2xSUMO2ΔN11 (di-SUMO2) (Homo sapiens, UniProt P61956); assay: ITC binding to linear di-SUMO2 (2xSUMO2ΔN11); conditions: linear di-SUMO2
T1 construct: Each monomer in these chains is separated by RS replacing the natural GG motif; a C-terminal GG motif and a stop codon; GST (N, cleaved yes); made in house; host or cells: E. coli Rosetta 2(DE3)pLysS
Excerpt: (§1) For expression in Escherichia coli, linear poly-SUMO chains were generated as described previously with slight modifications. After the combined PCR/ligation reaction, the 4×SUMO2-ΔN11 or 4×SUMO1-ΔN15 DNA polymers were separated from smaller polymers by agarose gel electrophoresis and individually extracted (Macherey–Nagel). These were then subjected to a second PCR with primers to create BamHI and XhoI restriction sites, a C-terminal GG motif and a stop codon. The resulting fragments coding for di-, tri- and tetra-SUMO2-ΔN11 or SUMO1-ΔN15 chains were amplified and cloned into pGEX-4T2. […] Each monomer in these chains is separated by RS replacing the natural GG motif. A similar strategy was used to design C-terminally GFP–HA2-tagged linear poly-SUMOs in the copper-inducible Ycplac22 vector for expression in S. cerevisiae. […]
(§2) The mono-SUMOs and linear poly-SUMO1 and poly-SUMO2 proteins as well as all RNF4 constructs were expressed as GST-fusion proteins from E. coli Rosetta™ 2(DE3)pLysS cells (Novagen) cultivated in LB medium with 100 μg/ml ampicillin and 30 μg/ml chloramphenicol after induction with 0.1 mM IPTG at 20°C for 12 h. […]
(§3) Binding of peptides and proteins to SUMOs was investigated by ITC using either a VP-ITC or an ITC200 (GE Healthcare). […] Protein concentrations were determined by measuring the absorption at 280 nm. […]

[2] = biological target: T2, 1xSUMO2ΔN11 (mono-SUMO2) (Homo sapiens, UniProt P61956); assay: ITC binding to mono-SUMO2 (1xSUMO2ΔN11)
T2 construct: a C-terminal GG motif and a stop codon; GST (N, cleaved yes); made in house; host or cells: E. coli Rosetta 2(DE3)pLysS
Excerpt: as §1, §2, §3

T1 sequence (P61956 with tags, fused parts or gaps): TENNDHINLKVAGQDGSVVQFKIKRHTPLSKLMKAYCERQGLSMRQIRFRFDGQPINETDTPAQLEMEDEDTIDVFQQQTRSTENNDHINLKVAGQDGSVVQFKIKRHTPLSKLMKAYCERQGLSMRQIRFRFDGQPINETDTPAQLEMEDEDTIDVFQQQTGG
T2 sequence (P61956 12-93 limits assumed, stated change not applied): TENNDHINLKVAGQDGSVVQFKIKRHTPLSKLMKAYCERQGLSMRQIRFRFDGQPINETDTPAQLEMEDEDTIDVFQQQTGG

| Structure (SMILES) | affinity for di-SUMO2 [1] | affinity for mono-SUMO2 [2] |
| --- | --- | --- |
| CC[C@H](C)[C@H](NC(=O)[C@@H](NC(=O)[C@H](CCC(=O)O)NC(=O)[C@H](CO)NC(=O)[C@H](CO)NC(=O)[C@H](CO)NC(=O)[C@H](CO)NC(=O)[C@H](CC(=O)O)NC(=O)[C@@H](NC(=O)[C@@H](NC(=O)[C@H](CC(C)C)NC(=O)[C@H](CC(=O)O)NC(=O)[C@@H](NC(=O)[C@@H](NC(=O)[C@H](CCC(=O)O)NC(=O)[C@@H](NC(=O)[C@H](CCCCN)NC(=O)[C@@H](N)CCCCN)C(C)C)C(C)C)[C@@H](C)CC)[C@@H](C)O)[C@@H](C)CC)C(C)C)C(=O)N[C@@H](CC(=O)O)C(=O)N[C@@H](CC(C)C)C(=O)N[C@H](C(=O)N[C@H](C(=O)N[C@@H](CC(=O)O)C(=O)N[C@@H](CO)C(=O)N[C@@H](CO)C(=O)O)[C@@H](C)CC)[C@@H](C)O [2xPIAS1pep, reference compound] (H-KKVEVIDLTIDSSSSEVIDLTIDSS-OH; N-terminus and C-terminus assumed) | exceeded the affinities of the RNF4-SIM2/3 peptide | – |
| CC[C@H](C)[C@H](NC(=O)[C@@H](NC(=O)[C@H](CCC(=O)O)NC(=O)[C@@H](NC(=O)[C@H](CCCCN)NC(=O)[C@@H](N)CCCCN)C(C)C)C(C)C)C(=O)N[C@@H](CC(=O)O)C(=O)N[C@@H](CC(C)C)C(=O)N[C@H](C(=O)N[C@H](C(=O)N[C@@H](CC(=O)O)C(=O)N[C@@H](CO)C(=O)N[C@@H](CO)C(=O)N[C@@H](CO)C(=O)N[C@@H](CC(=O)O)C(=O)N[C@@H](CCC(=O)O)C(=O)O)[C@@H](C)CC)[C@@H](C)O [PIAS1pep] (H-KKVEVIDLTIDSSSDE-OH; N-terminus and C-terminus assumed) | – | much stronger than the binding of any RNF4-derived tandem SIM peptide |
| CC[C@H](C)[C@H](NC(=O)[C@H](CCC(=O)O)NC(=O)[C@H](CC(=O)O)NC(=O)CN)C(=O)N[C@H](C(=O)N[C@@H](CC(=O)O)C(=O)N[C@@H](CC(C)C)C(=O)N[C@H](C(=O)N[C@@H](CS)C(=O)N[C@@H](CCC(=O)O)C(=O)N[C@@H](CO)C(=O)N[C@@H](CC(C)C)C(=O)N[C@@H](CCC(=O)O)C(=O)N1CCC[C@H]1C(=O)N[C@H](C(=O)N[C@H](C(=O)N[C@H](C(=O)N[C@@H](CC(=O)O)C(=O)N[C@@H](CC(C)C)C(=O)N[C@H](C(=O)N[C@@H](Cc1c[nH]cn1)C(=O)N[C@@H](CC(N)=O)C(=O)N[C@@H](CC(=O)O)C(=O)N[C@@H](CO)C(=O)O)[C@@H](C)O)C(C)C)C(C)C)C(C)C)[C@@H](C)O)C(C)C [RNF4-SIM2/3pep] (H-GDEIVDLTCESLEPVVVDLTHNDS-OH; N-terminus and C-terminus assumed) | very similar to the one of the whole RNF4-SIM domain for di-SUMO2 | – |
